Assay results as given in patent US10800726B2, “Rexinoid compounds and methods of using rexinoid compounds for treating metabolic disorders and cancer” (THE UAB RESEARCH FOUNDATION, priority 2014, dated 2020).

Experiments:
[1] = tested on: estrogen-negative mammary cancers; test: DMBA-induced mammary carcinogenesis in transgenic erbB2+/− mice; assay type: in vivo; settings: orally administered, female transgenic erbB2+/− mice, vs control mice, FIG. 1
Description: FIG. 1 is a graph showing the efficacy of 9-cis-UAB30, TARGRETIN, Compound UAB125, and Compound UAB126 in preventing the formation of mammary cancers in ErbB2^+/− female mice. The first bar represents the controls for 9-cis-UAB30 and TARGRETIN. The fourth bar represents the controls for UAB125 and UAB126.
Mammary carcinogenesis was induced in female, transgenic erbB2^+/− mice using 7,12-Dimethylbenz[a]anthracene (DMBA). The mice were orally administered 9-cis-UAB30 (a tissue selective rexinoid), TARGRETIN® (Valeant Pharmaceuticals, West Laurel, Calif.) (i.e., bexarotene, which is a potent RXR agonist), UAB125, or UAB126. The control mice were not administered any compounds. […] Specifically, UAB125 and UAB126 prevented the formation of 68% and 79%, respectively, of the estrogen-negative mammary cancers, while 9-cis-UAB30 and TARGRETIN® prevented only 54% and 65%, respectively.

[2] = High fat diet-induced obesity: body weight, body composition (QMR), food intake; assay type: in vivo, C57BL/6J mice
Description: (§1) Twelve C57BL/6J mice were randomly divided into two groups, namely high fat diet (HFD) (60% of calories from fat) fed with or without Compound UAB126 (1.5 g/kg food) for 10 weeks.
(§2) Also, fasting glucose levels in mice fed HFD with Compound UAB126 were lower than mice fed HFD (FIG. 5). […] Food intake was not different between the 2 groups.

[3] = Glucose tolerance, insulin sensitivity and fasting glucose in high fat diet fed mice; assay type: in vivo, C57BL/6J mice; settings: HFD with compound
Description: as §1, §2

[4] = Serum triglyceride, cholesterol and free fatty acids in high fat diet fed mice; assay type: in vivo, C57BL/6J mice
Description: as §1
Previously developed rexinoids have the adverse side effect of elevating serum triglyceride (TG) level. […] Thus, Compound UAB126 can regulate lipid metabolism.

[5] = QMR, normalized by body weight, FIG. 6B
[6] = QMR, without normalization, FIG. 6A

With `C=C(c1ccc(C(=O)O)cc1)c1cc2c(cc1C)C(C)(C)CCC2(C)C` [TARGRETIN, bexarotene, reference compound] the “prevention of formation of estrogen-negative mammary cancers” value (“prevention” below) [1] was 65%.

In the case of `O=C(O)C=Cc1ccc(-c2cccc3ccccc23)cc1` (single isomer, unassigned) [UAB126, 3-(4-(1-naphthyl)phenyl)propenoic acid], the “final body weight (avg.)” value ([2]; HFD (60% of calories from fat) with compound 1.5 g/kg food, 10 weeks, avg. initial 22.5 g, HFD alone: initial 23 g, final 40 g, FIG. 2) is reported as 27.8 g, the “body weight gain compared to HFD fed mice without compound” value ([2]; HFD with compound 1.5 g/kg food, 10 weeks, FIG. 2) is reported as “gained less body weight” and the “fat mass normalized by body weight, compared to HFD fed mice” value [2, 5] is reported as “less fat mass”. The “lean mass normalized by body weight, compared to HFD fed mice” value [2, 5] was “more lean mass”, the fat mass [2, 6] was “markedly reduced” and the lean mass [2, 6] was “slightly reduced”. The “glucose tolerance vs mice fed HFD alone” value ([3]; FIG. 3) was “more glucose tolerant”, the “insulin sensitivity vs mice fed HFD alone” value ([3]; FIG. 4) was “insulin sensitive” and the “fasting glucose levels vs mice fed HFD” value ([3]; FIG. 5) was “lower”. The “prevention” value [1] was 79%, the serum triglyceride levels ([4]; HFD with compound vs HFD, FIG. 7) was “significantly reduced” and the serum cholesterol ([4]; compared to HFD vehicle treated mice, FIG. 8A) was “significantly decreased”. For the same compound, the “serum free fatty acids (FFA)” value ([4]; compared to HFD vehicle treated mice, FIG. 8B) was “significantly decreased”.

With `CC(=C/C=C/C(C)=C/C(=O)O)/C=C1\CCCc2ccccc21` [Compound 9-cis-UAB30, reference compound] the “prevention” value [1] was 54%.

For `Cc1ccc(-c2cccc(C=CC(=O)O)c2)c2ccccc12` (single isomer, unassigned) [UAB125, 3-(3-(4-methyl-1-naphthyl)phenyl)propenoic acid], the “prevention” value [1] was 68%.
